Assay results reported in ChEMBL document CHEMBL1137662, “Effect of oral treatment with hexadecyloxypropyl-[(S)-9-(3-hydroxy-2- phosphonylmethoxypropyl)adenine] [(S)-HPMPA] or octadecyloxyethyl-(S)-HPMPA on cowpox or vaccinia virus infections in mice” (Antimicrob Agents Chemother, 2007).
Calls of active or inactive are those of the source. The calls are words filed in the database; no cut-off is given here.

Experiments:
[1] = tested on: Cowpox virus; assay: Antiviral activity against Cowpox virus Brighton infected BALB/c mouse assessed as mortality at 10 mg/kg, ip treated for 5 days after 72 hrs of viral inoculation; format: functional, Cowpox virus (Brighton Red); details: route intraperitoneal
[2] = Selectivity index, ratio of CC50 for HFF cells to EC50 for Cowpox virus Brighton; format: toxicity, cell-based; details: human, read-out: Ratio CC50/EC50
[3] = Selectivity index, ratio of CC50 for HFF cells to EC50 for Vaccinia virus WR; format: toxicity, cell-based; details: human, read-out: Ratio CC50/EC50
[4] = tested on: Cowpox virus; assay: Antiviral activity against Cowpox virus Brighton in HFF cells assessed as reduction of viral replication after 3 days; format: functional, organism-based, Cowpox virus (Brighton Red); details: 72 h
[5] = tested on: Vaccinia virus; assay: Antiviral activity against Vaccinia virus Copenhagen in HFF cells assessed as reduction of viral replication after 3 days; format: functional, organism-based; details: Orthopoxvirus vaccinia, 72 h
[6] = Selectivity index, ratio of CC50 for HFF cells to EC50 for Vaccinia virus Copenhagen; format: toxicity, cell-based; details: human, read-out: Ratio CC50/EC50
[7] = Cytotoxicity against HFF cells after 7 days; format: cell-based; details: human
[8] = tested on: Vaccinia virus; assay: Antiviral activity against Vaccinia virus WR infected BALB/c mouse assessed as reduction of viral titer in lung at 30 mg/kg, po treated for 5 days after 24 hrs of viral inoculation; format: functional, organism-based; parameters: dose 30 mg/kg; details: Orthopoxvirus vaccinia
[9] = tested on: Cowpox virus; assay: Antiviral activity against Cowpox virus Brighton infected BALB/c mouse assessed as mean death day at 10 mg/kg, po treated for 5 days after 48 hrs of viral inoculation; format: functional, Cowpox virus (Brighton Red)
[10] = tested on: Cowpox virus; assay: Antiviral activity against Cowpox virus Brighton infected BALB/c mouse assessed as mortality at 10 mg/kg, ip treated for 5 days after 48 hrs of viral inoculation; format: functional, Cowpox virus (Brighton Red); details: route intraperitoneal
[11] = tested on: Cowpox virus; assay: Antiviral activity against Cowpox virus Brighton infected BALB/c mouse assessed as mortality at 10 mg/kg, ip treated for 5 days after 24 hrs of viral inoculation; format: functional, Cowpox virus (Brighton Red); details: route intraperitoneal
[12] = tested on: Vaccinia virus; assay: Antiviral activity against Vaccinia virus WR infected BALB/c mouse assessed as mortality at 15 mg/kg, ip treated for 5 days after 72 hrs of viral inoculation; format: functional, Orthopoxvirus vaccinia; details: route intraperitoneal
[13] = tested on: Vaccinia virus; assay: Antiviral activity against Vaccinia virus WR infected BALB/c mouse assessed as mortality at 15 mg/kg, ip treated for 5 days after 48 hrs of viral inoculation; format: functional, Orthopoxvirus vaccinia; details: route intraperitoneal
[14] = tested on: Vaccinia virus; assay: Antiviral activity against Vaccinia virus WR infected BALB/c mouse assessed as mortality at 15 mg/kg, ip treated for 5 days after 24 hrs of viral inoculation; format: functional, Orthopoxvirus vaccinia; details: route intraperitoneal
[15] = tested on: Vaccinia virus; assay: Antiviral activity against Vaccinia virus WR infected BALB/c mouse assessed as mortality at 10 mg/kg, ip treated for 5 days after 72 hrs of viral inoculation; format: functional, Orthopoxvirus vaccinia; details: route intraperitoneal
[16] = tested on: Vaccinia virus; assay: Antiviral activity against Vaccinia virus WR infected BALB/c mouse assessed as mortality at 10 mg/kg, ip treated for 5 days after 48 hrs of viral inoculation; format: functional, Orthopoxvirus vaccinia; details: route intraperitoneal
[17] = tested on: Vaccinia virus; assay: Antiviral activity against Vaccinia virus WR infected BALB/c mouse assessed as mortality at 10 mg/kg, ip treated for 5 days after 24 hrs of viral inoculation; format: functional, Orthopoxvirus vaccinia; details: route intraperitoneal
[18] = tested on: Vaccinia virus; assay: Antiviral activity against Vaccinia virus WR in HFF cells assessed as reduction of viral replication after 3 days; format: functional, organism-based; details: Orthopoxvirus vaccinia, 72 h
[19] = Oral bioavailability in Swiss Webster mouse at 10 mg/kg; format: ADME, organism-based; details: in vivo

Compound | Activity [1] [%] | selectivity ratio [2] | selectivity ratio [3] | EC50 [4] [µM] | EC50 [5] [nM] | selectivity ratio [6] | CC50 at 168 h [7] [µM] | Activity [8] | Activity [9] [days] | Activity [10] [%] | Activity [11] [%] | Activity [12] [%] | Activity [13] [%] | Activity [14] [%] | Activity [15] [%] | Activity [16] [%] | Activity [17] [%] | EC50 [18] [µM] | bioavailability [19] [%]
Nc1ccn(C[C@@H](CO)OCP(=O)(O)O)c(=O)n1.O.O [CIDOFOVIR] | 0 | > 9.1 | > 10.9 | 35 | 26000 | > 12.2 | > 317 | Active | 11 | 0 | 0 | 0 | 100 | 0 | 143 | 0 | 0 |  | 
CCCCCCCCCCCCCCCCOCCCOP(=O)(O)CO[C@H](CO)Cn1ccc(N)nc1=O [BRINCIDOFOVIR] |  | 52 | 28 | 0.6 | 800 | 39 | 31 |  |  |  |  |  |  |  |  |  |  | 1.1 | 
Nc1ncnc2c1ncn2C[C@@H](CO)OCP(=O)(O)O |  | > 72 | > 44 | 4 | 2700 | > 107 | > 289 |  |  |  |  |  |  |  |  |  |  | 6.5 | 24
